For the experiment, the target named is T1, PEDV RdRp (Nsp12) (Porcine epidemic diarrhea virus, UniProt K4NS01).
T1 sequence (K4NS01 4101-5027): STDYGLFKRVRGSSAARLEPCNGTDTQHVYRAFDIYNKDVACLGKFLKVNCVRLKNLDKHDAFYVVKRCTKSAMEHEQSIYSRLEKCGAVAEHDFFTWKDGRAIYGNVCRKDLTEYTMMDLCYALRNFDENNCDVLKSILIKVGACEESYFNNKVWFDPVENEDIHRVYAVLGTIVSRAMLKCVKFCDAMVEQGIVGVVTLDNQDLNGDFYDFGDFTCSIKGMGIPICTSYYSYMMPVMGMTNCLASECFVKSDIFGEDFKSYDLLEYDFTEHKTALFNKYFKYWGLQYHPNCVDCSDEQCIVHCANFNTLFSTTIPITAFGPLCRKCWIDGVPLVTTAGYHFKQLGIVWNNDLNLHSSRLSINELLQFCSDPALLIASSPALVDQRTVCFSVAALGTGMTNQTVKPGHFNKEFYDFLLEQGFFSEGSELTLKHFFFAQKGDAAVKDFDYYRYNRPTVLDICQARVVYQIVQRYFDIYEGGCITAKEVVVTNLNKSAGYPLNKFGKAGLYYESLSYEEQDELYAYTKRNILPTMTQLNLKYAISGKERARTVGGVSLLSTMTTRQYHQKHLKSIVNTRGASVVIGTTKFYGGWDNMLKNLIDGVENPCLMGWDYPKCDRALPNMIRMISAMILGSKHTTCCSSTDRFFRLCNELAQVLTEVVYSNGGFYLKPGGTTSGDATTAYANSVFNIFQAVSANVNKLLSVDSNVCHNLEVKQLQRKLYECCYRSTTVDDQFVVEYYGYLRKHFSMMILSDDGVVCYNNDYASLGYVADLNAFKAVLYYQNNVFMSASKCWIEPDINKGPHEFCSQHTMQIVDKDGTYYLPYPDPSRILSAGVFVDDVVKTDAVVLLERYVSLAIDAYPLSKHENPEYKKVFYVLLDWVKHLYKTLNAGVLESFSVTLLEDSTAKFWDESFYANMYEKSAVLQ
Kind of experiment: CoV-RdRp-Gluc luciferase reporter assay in transfected HEK-293T cells. Format: cell-based.

Consider `CC(C)/N=c1\cc2n(-c3ccc(Cl)cc3)c3ccccc3nc-2cc1Nc1ccc(Cl)cc1` [clofazimine], for which half-maximal inhibition (IC50) was put at 136 nM.

Source of the values: article PMC12282428 (Virologica Sinica, 2025).
